The values that follow come from article PMC7044277 (Nature Communications, 2020).

Where “and” joins values, the source holds several entries; their conditions need not be identical. Equal entries are not always repeated.

One assay concerns the target DRD3 F1063.28A (Homo sapiens, UniProt P35462, F106A). Briefly: biochemical. The format is binding. As to conditions: DRD3 F1063.28A; read-out: Ki.
Another assay deals with DRD3 wild-type (Homo sapiens, UniProt P35462). Briefly: Radioligand competition binding, [3H]-N-methylspiperone. As to conditions: for Ki: DRD3, [3H]-methylspiperone (0.8-1.0 nM), read-out: Ki. (In general: In a radioligand displacement assay an active substance lowers the binding of a labelled ligand.)
Sequence of DRD3 wild-type (P35462 whole entry): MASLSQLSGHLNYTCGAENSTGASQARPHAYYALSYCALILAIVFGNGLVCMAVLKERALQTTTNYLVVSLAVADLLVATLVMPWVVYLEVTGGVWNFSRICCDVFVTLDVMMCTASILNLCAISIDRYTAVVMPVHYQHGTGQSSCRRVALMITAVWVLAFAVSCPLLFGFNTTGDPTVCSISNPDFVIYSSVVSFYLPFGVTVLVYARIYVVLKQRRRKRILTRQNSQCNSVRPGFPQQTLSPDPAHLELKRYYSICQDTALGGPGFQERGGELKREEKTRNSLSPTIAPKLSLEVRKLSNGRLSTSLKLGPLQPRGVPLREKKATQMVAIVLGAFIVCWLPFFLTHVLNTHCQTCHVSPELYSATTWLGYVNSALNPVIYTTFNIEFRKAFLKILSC
A further assay has as its target DRD3 (Homo sapiens, UniProt P35462). Briefly: β-arrestin2 recruitment (Tango). It counts as cell-based. As to conditions: DRD3, Tango; for EC50: read-out: EC50 ± SEM. Background: Activated receptors often draw arrestin, which recruitment assays turn into a signal.
The target in assay [1] is T1, DRD4 (D4.4 variant) (Homo sapiens, UniProt P21917).
T1 sequence (P21917 1-419): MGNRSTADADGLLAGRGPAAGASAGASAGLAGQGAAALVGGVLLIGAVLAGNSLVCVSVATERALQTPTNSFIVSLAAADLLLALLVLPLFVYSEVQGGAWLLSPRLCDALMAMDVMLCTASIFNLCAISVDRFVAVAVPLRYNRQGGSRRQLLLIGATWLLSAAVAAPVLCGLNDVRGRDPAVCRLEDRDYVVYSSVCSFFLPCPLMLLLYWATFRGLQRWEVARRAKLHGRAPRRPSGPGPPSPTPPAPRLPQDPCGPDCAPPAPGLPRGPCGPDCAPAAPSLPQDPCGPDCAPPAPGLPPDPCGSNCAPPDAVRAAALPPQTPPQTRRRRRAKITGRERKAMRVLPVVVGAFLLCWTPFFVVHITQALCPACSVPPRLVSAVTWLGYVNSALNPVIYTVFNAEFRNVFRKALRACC
The assay is described as follows: β-arrestin2 recruitment (Tango). The format is cell-based. Conditions: DRD4; Tango; read-out: EC50 ± SEM.

For assay [2], the target named is T2, DRD4 (D4.4 variant) wild-type (Homo sapiens, UniProt P21917).
T2 sequence (P21917 1-419): T1 sequence (P21917 1-419)
Briefly: Radioligand competition binding, [3H]-N-methylspiperone. As to conditions: for Ki: DRD4, [3H]-methylspiperone (0.8-1.0 nM), read-out: Ki.

The target in assay [3] is T1, DRD4 (D4.4 variant). Briefly: Gαi/o-mediated cAMP inhibition (GloSensor). As to conditions: DRD4; agonist, cAMP inhibition; read-out: EC50 ± SEM. It counts as cell-based.
Assay [4] deals with T3, DRD2 (D2 long receptor) (Homo sapiens, UniProt P14416). The assay is described as follows: Gαi/o-mediated cAMP inhibition (GloSensor split-luciferase cAMP reporter), HEK293T.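 On all read-outs here: compounds applied 15 min at room temperature, then luciferin plus 400 nM isoproterenol to raise cAMP through endogenous β2-adrenergic receptors, luminescence read 15 min later.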 Conditions: for EC50: agonist, Gαi/o-mediated cAMP inhibition, read-out: EC50 ± SEM; for Response, Fig_S11b dose-response: individual replicates. It counts as cell-based.
T3 sequence (P14416 whole entry): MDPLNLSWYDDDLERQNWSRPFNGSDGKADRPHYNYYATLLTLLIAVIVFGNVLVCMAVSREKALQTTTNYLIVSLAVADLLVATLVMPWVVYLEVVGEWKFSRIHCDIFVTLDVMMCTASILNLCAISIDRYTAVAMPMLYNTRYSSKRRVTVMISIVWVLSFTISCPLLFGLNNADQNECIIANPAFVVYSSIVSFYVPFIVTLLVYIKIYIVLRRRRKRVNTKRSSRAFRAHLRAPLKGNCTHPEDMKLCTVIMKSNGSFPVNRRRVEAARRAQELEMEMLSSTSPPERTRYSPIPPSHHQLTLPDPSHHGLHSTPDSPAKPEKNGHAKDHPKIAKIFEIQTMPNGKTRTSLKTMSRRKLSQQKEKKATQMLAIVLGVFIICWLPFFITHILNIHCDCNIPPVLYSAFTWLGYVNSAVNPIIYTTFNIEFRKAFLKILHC
A further assay has as its target DRD2 F1103.28A (Homo sapiens, UniProt P14416, F110A). It counts as binding. On the set-up: expressed in transfected cells; host or cells: HEK293T (ATCC CRL-11268). Conditions: DRD2 F1103.28A; read-out: Ki.
For assay [5], the target named is T3, DRD2 (D2 long receptor). Briefly: β-arrestin2 recruitment (Tango), HTLA cells. It counts as cell-based. As to conditions: for EC50: β-arrestin2 recruitment (Tango), read-out: EC50 ± SEM; for Response, Fig_S11c dose-response: individual replicates.
In assay [6] the target is DRD2 (D2 long receptor) wild-type (Homo sapiens, UniProt P14416). The assay is described as follows: Radioligand competition binding, [3H]-N-methylspiperone, HEK293T membranes. Conditions: DRD2; [3H]-methylspiperone (0.8-1.0 nM); read-out: Ki.
Sequence of DRD2 (D2 long receptor) wild-type (P14416 whole entry): as above

As usually defined, the Ki is a dissociation constant, usually derived from enzyme kinetics or from competition with a known ligand. What is called EC50 is the midpoint of the concentration-response curve.

Sequence of DRD2 F1103.28A (P14416 whole entry F110A): as the sequence (P14416 whole entry) above, with F110A counted along it
Sequence of DRD3 (P35462 whole entry): as the sequence (P35462 whole entry) above
Sequence of DRD3 F1063.28A (P35462 whole entry F106A): as the sequence (P35462 whole entry) above, with F106A counted along it

Turning to `CCOc1cccc2cc(C(C)NCCO)oc12` (centres unmarked) [O4LE1], the Ki (at DRD3 F1063.28A; on DRD3 wild-type; in [2]; at DRD2 F1103.28A; in [6]) was above 10 µM in each case. Moreover, the EC50 at DRD3, on DRD4 (D4.4 variant) [1], on DRD4 (D4.4 variant) [3], at DRD2 (D2 long receptor) [4] (DRD2) and at DRD2 (D2 long receptor) [5] (DRD2) was above 10 µM in each case.

Consider `CCOc1cccc2cc(C(C)NCC(C)(C)O)oc12` (racemic) [O4LE2], for which the inhibition constant Ki (at DRD3 F1063.28A; at DRD3 wild-type; in [2]; at DRD2 F1103.28A; in assay [6]) was above 10 µM in each case. The concentration for a half-maximal effect (EC50) at DRD3, at DRD4 (D4.4 variant) [1], at DRD4 (D4.4 variant) [3], at DRD2 (D2 long receptor) [4] (DRD2) and on DRD2 (D2 long receptor) [5] (DRD2) was above 10 µM each time.

Turning to `CC(NCC1(O)CCCCC1)c1cc2ccccc2o1.Cl` (centres unmarked) [O1LE6], the Ki on DRD3 wild-type was 0.76 µM; in assay [2], 5.89 µM; on DRD2 F1103.28A, above 10 µM; in assay [6] it was above 10 µM. The “pKi ± SEM” value on DRD3 wild-type (DRD3 wild-type) is 6.12±0.17; in assay [2] (DRD4 wild-type), 5.23±0.05. Moreover, the “Emax relative to quinpirole response” value on DRD3 is on record as 32.40%; at DRD2 (D2 long receptor) [4] (DRD2, cAMP inhibition), 91.90%; at DRD2 (D2 long receptor) [5] (DRD2, Tango) it was 70.08%. Moreover, the EC50 at DRD3 is 2.53 ± 0.29 µM; on DRD4 (D4.4 variant) [1], above 10 µM; on DRD4 (D4.4 variant) [3], above 10 µM; on DRD2 (D2 long receptor) [4] (DRD2), 0.0331 ± 0.0188 µM; at DRD2 (D2 long receptor) [5] (DRD2), 0.797 ± 0.0577 µM. For the same molecule, the “Response, Fig_S11b dose-response” value at DRD2 (D2 long receptor) [4] (Log[Drug] -5) is 89.3204 and 91.1814 and 93.3649 and 89.4471 and 88.0921 and 76.1419 and 96.2317 and 89.795 and 84.5788; at DRD2 (D2 long receptor) [4] (Log[Drug] -5.52) it was 91.5039 and 91.6528 and 82.6955 and 86.6619 and 92.27 and 73.2437 and 89.2098 and 91.9183 and 89.3603; on DRD2 (D2 long receptor) [4] (Log[Drug] -6), 93.6874 and 86.8392 and 81.0827 and 85.4951 and 84.0648 and 76.6312 and 94.0081 and 90.9486 and 79.3124; at DRD2 (D2 long receptor) [4] (Log[Drug] -6.52), 82.5466 and 82.8444 and 76.7653 and 79.6611 and 79.6234 and 70.5902 and 84.9299 and 83.4419 and 82.6896; on DRD2 (D2 long receptor) [4] (Log[Drug] -7), 69.4705 and 74.0856 and 77.7579 and 57.4355 and 50.0583 and 54.3867 and 80.2821 and 76.3198 and 67.1078; at DRD2 (D2 long receptor) [4] (Log[Drug] -7.52), 64.6321 and 55.65 and 60.3147 and 22.695 and 37.7317 and 15.9389 and 61.2396 and 56.2574 and 56.2742. In addition, the “Response, Fig_S11b dose-response” value is 44.0874 and 48.1814 and 41.755 and 12.175 and 7.433 and 11.554 and 48.1991 and 55.9732 and 50.8406 at DRD2 (D2 long receptor) [4] (Log[Drug] -8); 32.3511 and 30.5646 and 24.436 and 24.7087 and -0.0952 and 5.9082 and 29.5745 and 42.6986 and 35.9443 on DRD2 (D2 long receptor) [4] (Log[Drug] -8.52); 34.212 and 32.0286 and 29.2744 and 20.4555 and 1.072 and 15.4496 and 33.7709 and 34.4062 and 30.9956 on DRD2 (D2 long receptor) [4] (Log[Drug] -9); 20.5404 and 9.648 and 18.1596 and 0.62 at DRD2 (D2 long receptor) [4] (Log[Drug] -11); 13.5185 and 18.481 and 17.1411 and 15.3743 and -1.1867 and 2.859 on DRD2 (D2 long receptor) [4] (Log[Drug] -11.52); -3.8502 and -19.5316 and -15.1399 and -4.9694 and 6.341 and -2.4664 and 2.0891 and 0.1832 and -19.7287 on DRD2 (D2 long receptor) [4] (Log[Drug] -12). In addition, the “response, Fig_S11c dose-response source data” value on DRD2 (D2 long receptor) [5] (Fig_S11c, Log[Drug] -5, replicate values) is 73.3598 and 82.2115 and 60.0642 and 63.6209 and 63.3142 and 65.0045 and 51.1507 and 58.9513 and 48.4491. The “Response, Fig_S11c dose-response” value at DRD2 (D2 long receptor) [5] (Log[Drug] -6.52) was 30.014; on DRD2 (D2 long receptor) [5] (Log[Drug] -7), 10.4893 and 10.462 and 11.7147 and 9.282 and 6.266 and 8.074 and 10.4045 and 10.5346 and 7.978; on DRD2 (D2 long receptor) [5] (Log[Drug] -7.52), 6.009 and 6.371 and 5.905 and 4.934 and 4.227 and 4.993 and 4.682 and 6.374 and 4.32; at DRD2 (D2 long receptor) [5] (Log[Drug] -8) it was 4.1038 and 4.071 and 3.602 and 3.942 and 4.272 and 4.026 and 4.857 and 4.849 and 4.688; on DRD2 (D2 long receptor) [5] (Log[Drug] -8.52) it was 3.803 and 4.0098 and 4.032 and 4.312 and 4.259 and 4.357 and 4.07 and 4.763 and 3.775; at DRD2 (D2 long receptor) [5] (Log[Drug] -9), 4.244 and 4.685 and 3.406 and 3.869 and 4.425 and 4.183 and 3.883 and 3.8713 and 3.512. The “Response, Fig_S11c dose-response” value at DRD2 (D2 long receptor) [5] (Log[Drug] -9.52) was 4.538 and 3.818 and 3.898 and 3.793 and 4.174 and 4.462 and 3.884 and 3.705 and 3.5; on DRD2 (D2 long receptor) [5] (Log[Drug] -10), 3.12 and 5.224 and 4.08 and 4.167 and 4.261 and 4.387 and 3.865 and 3.579 and 4.318; at DRD2 (D2 long receptor) [5] (Log[Drug] -10.52) it was 3.591 (2×) and 4.048 and 3.394 and 3.852 and 3.958 and 3.858 and 3.561 and 3.474; on DRD2 (D2 long receptor) [5] (Log[Drug] -11) it was 5.996 and 3.267 and 3.43 and 3.872 and 3.92 and 4.064 and 4.092 and 3.609 and 4.397; on DRD2 (D2 long receptor) [5] (Log[Drug] -11.52), 4.744 and 4.248 and 3.765 and 3.919 and 3.901 and 3.85 and 3.587 and 4.237 and 3.779; at DRD2 (D2 long receptor) [5] (Log[Drug] -12) it was 4.068 (2×) and 3.901 and 3.393 and 4.0327 and 3.921 and 3.9 and 3.99 and 3.547.
